Source: patent publication US10981911B2, “Imidazopyrrolopyridine as inhibitors of the JAK family of kinases” (Janssen Pharmaceutica NV, priority 2016, dated 2021)
Where two headings read alike, the source gives them in different places.

Key:
[1] = In vivo p.o. dosing: plasma and colon tissue concentrations (Protocols 1 and 2); set-up: species or system female C57BL/6 mice; conditions: female, C57BL/6, mouse, po, mice, 25 mg/kg p.o.
Method: These protocols are described below under the heading In vivo Studies. Three non-fasted female C57BL/6 mice were orally administered test compound at a dose of 25 mg/kg p.o. as a solution in 20% hydroxypropyl-beta-cyclodextrin (HPβCD) at a dose volume of 5 mL/kg. Blood samples were collected at 0.5, 2, and 4 h post dose via retro-orbital bleed or venipuncture of the dorsal metatarsal vein. Blood samples were collected into tubes containing anticoagulant (Heparin-Na) and placed on wet ice. The plasma fraction was separated by centrifugation and frozen at −20° C. for up to 4 h and −80° C. after 4 h unless analyzed shortly after sample collection. Colon samples were collected at 4 h post dose. […] The colon was further washed by putting it in 5 mL of saline and shaken for 5 seconds. The colon sample was then patted dry, weighed, and homogenized as 1 part tissue (g) to 4 parts HPLC grade water (mL). Concentrations of the compound in plasma and colon homogenate were determined using a qualified liquid chromatography-triple quadrupole mass spectrometry (LC-MS/MS) method. […] Three non-fasted female C57BL/6 mice were orally administered test compound at a dose of 25 mg/kg p.o. as a solution in 20% HPβCD at a dose volume of 5 mL/kg. Blood samples were collected at 0.5, 2, and 4 h post dose via retro-orbital bleed or dorsal metatarsal vein. Blood samples were collected into tubes containing anticoagulant (Heparin-Na) and placed on wet ice. The plasma fraction was separated by centrifugation and frozen at −20° C. for up to 4 h and −80° C. after 4 h unless analyzed shortly after sample collection. Colon samples were collected at 4 h post dose. From 2 cm below the cecum, a 4 cm sample of the colon was dissected, cut open on the longitudinal axis, and the solid contents removed by flushing with 2 mL of saline. The colon was further washed by putting it in 5 mL of saline and shaken for 5 seconds. The colon sample was then patted dry, weighed, and homogenized as 1 part tissue (g) to 4 parts HPLC grade water (mL). Concentrations of the compound in plasma and colon homogenate were determined using a qualified liquid chromatography-triple quadrupole mass spectrometry (LC-MS/MS) method.

P-gp (MDR1) = test: MDCK-MDR1 permeability assay; format: in vitro ADME; conditions: dog, MDCK-MDR1, pH 7.4, @ 5 μM; for Papp A→B at 60 min, 5 μM: apical to basolateral, without P-gp inhibitor; for Papp B→A at 60 min, 5 μM: basolateral to apical
Method: Permeability measurements were conducted according to the Cyprotex protocol using the MDCK-MDR1 cell line obtained from the NIH (Rockville, Md., USA). Cells between passage numbers 6-30 were seeded onto a Multiscreen Plate™ (Millipore) at a cell density of 3.4×10^5 cells/cm^2 and cultured for three days before permeability studies were conducted. The cells in this assay form a cohesive sheet of a single cell layer filing the surface area of the culture dish, also known as a confluent monolayer, and on day four the test compound was added to the apical side of the membrane and the transport of the compound across the monolayer was monitored over a time period of 60 min.
Test compounds were dissolved in DMSO at a concentration of 10 mM. The dosing solutions were prepared by diluting test compound with assay buffer (Hanks Balanced Salt Solution), pH 7.4, at a final concentration of 5 μM. For assessment of apical to basolateral (“A-B”) permeability, buffer was removed from the apical compartment and replaced with test compound dosing solution with or without the permeability glycoprotein (“PgP”, “P-gP”, “Pgp” or “P-gp”) inhibitor elacridar (2 μM). For assessment of basolateral to apical (“B-A”) permeability, buffer was removed from the companion plate and replaced with test compound dosing solution. Incubations were carried out in duplicate at 37° C. in an atmosphere of 5% CO2 with a relative humidity of 95%. Each assay included the reference markers propranolol (high permeability) and prazosin (PgP substrate). After incubation for 60 minutes, apical and basolateral samples were diluted and test compounds quantified by LC/MS/MS using an 8-point calibration in the range 0.0039 to 3 μM with appropriate dilution of the samples (receiver dilution factor=1; donor and C0 dilution factor=10). The permeability coefficient (Papp) for each compound was calculated from the following equation: Papp=(dQ/dt)/(C0×S), where dQ/dt is the rate of permeation of the drug across the cells, C0 is the donor compartment concentration at time zero, and S is the area of the cell monolayer.
The second and third columns in Table 7 show the values of Papp(A-B) for the apical-to-basolateral compound transport without (second column) and with a P-gp inhibitor (third column, noted as P^eapp(A-B)) that was elacridar. Papp(A-B) gives an indication of permeation extent across the cells in this assay, which is envisaged to model the transcellular transport across Pgp-expressing cells, such as Pgp-expressing gastrointestinal tract cells. P^eapp(A-B) values (Papp(A-B) in the presence of the P-gp inhibitor) given in column 3 are determined to confirm the role of P-gp in the compound efflux. […] Test compound efflux ratios are given in the fifth column of Table 7 as Papp(B-A)/Papp(A-B) by using the corresponding permeability coefficient values from the fourth and second columns in the same table.

[2] = Solubility assays in simulated gastric and simulated intestinal fluids; format: physicochemical; conditions: thermodynamic from solid, 2-5 days
Method: Test compounds were dissolved in DMSO at a concentration of 10 mM. The test compounds were dispensed (20 μL) into Nunc 1-mL-96-Deep-Well-PP plates, and the DMSO was evaporated via nitrogen blow down from a TurboVap 96 for 6 hours or until a dry residue was produced. Then, 400 μL of solubility media was added to the well containing the dry solid. […] After the incubation period, the samples were filtered through an AcroPrep 1-mL-96-Filter plate into a new 2-mL-96-Deep-Well-PP plate, and the supernatants were quantified by UV-HPLC using a 3-point calibration ranging from 0.004-0.55 mM. The solubility for each compound was calculated from the following equation: […] Solubilities are reported as long as the compound under study was sufficiently stable to complete the corresponding solubility determination.

[3] = colon, read-out: Colon Concentration After p.o. Dosing, Mean
[4] = fassif, simulated intestinal fluid, fasted state pH 6.5, ambient temperature, read-out: SIF solubility
[5] = simulated gastric fluid, ambient temperature, read-out: SGF solubility

| Structure (SMILES) | concentration at 4 h [1, 3] [ng/g] | Papp A→B at 60 min, 5 μM (P-gp (MDR1)) [×10⁻⁶ cm/s] | Papp B→A at 60 min, 5 μM (P-gp (MDR1)) [×10⁻⁶ cm/s] | solubility [2, 4] [µM] | solubility [2, 5] [µM] | concentration at 0.5 h ([1]; plasma, Time = 0.5 h, read-out: Plasma Concentration After p.o. Dosing, Mean) [ng/mL] | concentration at 2 h ([1]; plasma, Time = 2 h, read-out: Plasma Concentration After p.o. Dosing, Mean) [ng/mL] | concentration at 4 h ([1]; plasma, read-out: Plasma Concentration After p.o. Dosing, Mean) [ng/mL] |
| --- | --- | --- | --- | --- | --- | --- | --- | --- |
| N#CC[C@H]1CC[C@H](n2c(CC(=O)Nc3cc[nH]n3)nc3cnc4[nH]ccc4c32)CC1 [Ex. 74, 2-(1-((1r,4r)-4-(Cyanomethyl)cyclohexyl)-1,6-dihydroimidazo[4,5-d]pyrrolo[2,3-b]pyridin-2-yl)-N-(1H-pyrazol-3-yl)acetamide] | 4780 | < 0.4 | 1.1 | > 400 | > 400 | – | – | – |
| Cn1cc(NC(=O)Cc2nc3cnc4[nH]ccc4c3n2[C@H]2CC[C@H](CC#N)CC2)cn1 [Ex. 38, 2-(1-((1r,4r)-4-(Cyanomethyl)cyclohexyl)-1,6-dihydroimidazo[4,5-d]pyrrolo[2,3-b]pyridin-2-yl)-N-(1-methyl-1H-pyrazol-4-yl)acetamide] | 7680 | < 0.4 | 1.8 | > 400 | > 400 | 15.1 | 6.2 | 3.9 |
